This assay has as its target ROCK1 (Homo sapiens (Human), UniProt Q13464). The assay can be described thus: ROCK1 kinase IC50 assay (biological test method similar to the ROCK2 assay). In kind it is biochemical. As for the experimental part: The kinase IC50 was determined by a commercialized CISBIO kinase detection kit, HTRF KinEASE-STK S2 kit (62ST2PEC). ROCK2 (01-119) employed in the reaction was purchased from Carna Biosciences.
Before the assay, the following working solutions as needed were formulated with corresponding reagents according to the instruction of the kinase detection kit: 1×kinase buffer, 5×STK-52 substrate working solution (1.5 μM) and 5×ATP working solution (1.5 μM), 5×ROCK2 kinase working solution, 4×Streptavidin-XL665 working solution, and 4×STK-Ab-Cryptate 2 detection solution. Then the assay was performed according to the following procedure.
A solution of a compound at a concentration of 10000 nM was prepared with the 1×kinase buffer containing 2.5% DMSO. Gradient dilution of the solution of the compound was performed with the kinase buffer containing DMSO, so as to obtain solutions of a test compound at 9 different concentrations. In addition to wells of test compounds, a positive well (containing all the reagents except the compound) and a negative well (containing all the reagents except the test compound and kinase) were set. Except for the control wells (positive and negative wells), a solution of a test compound (4 μL) was added to each of the reaction wells, and a solution of 2.5% DMSO was added to the control wells. Then the substrate ([…], 2 μL. 5×STK-S2 substrate working solution) was added to each of the reaction wells. The 5×ROCK2 kinase working solution (2 μL, containing 1.4 ng ROCK2 kinase) was added to each of the reaction wells except for the negative well, the volume of which was made up with the 1×kinase buffer (2 μL). The 5×ATP working solution (2 μL) was added to each of the reaction wells, and the mixtures were incubated at room temperature for 2 hours. After the kinase reaction was complete, the 4×Streptavidin-XL665 working solution was added to each of the reaction wells, the solutions were mixed, followed by immediate addition of the 4×STK-Ab-Cryptate 2 detection solution (5 μL), and the mixtures were incubated at room temperature for 1 hour. The fluorescence signal was read on ENVISION (Perkinelmer) (excitation wavelength: 320 nm, and emission wavelength: 665 nm and 615 nm). The inhibitory rate in each well was calculated based on the fluorescence intensity value: ER (Emission Ratio)=(fluorescence intensity at 665 nm/fluorescence intensity at 615 nm); inhibitory rate=(ERpositive−ERtest compound)/(ERpositive−ERnegative)*100%. Curves were plotted and fitted to obtain the median inhibitory concentration (IC50) of each teat compound with the PRISM 5.0 software.
According to a biological test method similar to the above, the IC50 values of the compounds on ROCK1 were tested.

Chain of ROCK1 (Q13464 whole entry, species assumed): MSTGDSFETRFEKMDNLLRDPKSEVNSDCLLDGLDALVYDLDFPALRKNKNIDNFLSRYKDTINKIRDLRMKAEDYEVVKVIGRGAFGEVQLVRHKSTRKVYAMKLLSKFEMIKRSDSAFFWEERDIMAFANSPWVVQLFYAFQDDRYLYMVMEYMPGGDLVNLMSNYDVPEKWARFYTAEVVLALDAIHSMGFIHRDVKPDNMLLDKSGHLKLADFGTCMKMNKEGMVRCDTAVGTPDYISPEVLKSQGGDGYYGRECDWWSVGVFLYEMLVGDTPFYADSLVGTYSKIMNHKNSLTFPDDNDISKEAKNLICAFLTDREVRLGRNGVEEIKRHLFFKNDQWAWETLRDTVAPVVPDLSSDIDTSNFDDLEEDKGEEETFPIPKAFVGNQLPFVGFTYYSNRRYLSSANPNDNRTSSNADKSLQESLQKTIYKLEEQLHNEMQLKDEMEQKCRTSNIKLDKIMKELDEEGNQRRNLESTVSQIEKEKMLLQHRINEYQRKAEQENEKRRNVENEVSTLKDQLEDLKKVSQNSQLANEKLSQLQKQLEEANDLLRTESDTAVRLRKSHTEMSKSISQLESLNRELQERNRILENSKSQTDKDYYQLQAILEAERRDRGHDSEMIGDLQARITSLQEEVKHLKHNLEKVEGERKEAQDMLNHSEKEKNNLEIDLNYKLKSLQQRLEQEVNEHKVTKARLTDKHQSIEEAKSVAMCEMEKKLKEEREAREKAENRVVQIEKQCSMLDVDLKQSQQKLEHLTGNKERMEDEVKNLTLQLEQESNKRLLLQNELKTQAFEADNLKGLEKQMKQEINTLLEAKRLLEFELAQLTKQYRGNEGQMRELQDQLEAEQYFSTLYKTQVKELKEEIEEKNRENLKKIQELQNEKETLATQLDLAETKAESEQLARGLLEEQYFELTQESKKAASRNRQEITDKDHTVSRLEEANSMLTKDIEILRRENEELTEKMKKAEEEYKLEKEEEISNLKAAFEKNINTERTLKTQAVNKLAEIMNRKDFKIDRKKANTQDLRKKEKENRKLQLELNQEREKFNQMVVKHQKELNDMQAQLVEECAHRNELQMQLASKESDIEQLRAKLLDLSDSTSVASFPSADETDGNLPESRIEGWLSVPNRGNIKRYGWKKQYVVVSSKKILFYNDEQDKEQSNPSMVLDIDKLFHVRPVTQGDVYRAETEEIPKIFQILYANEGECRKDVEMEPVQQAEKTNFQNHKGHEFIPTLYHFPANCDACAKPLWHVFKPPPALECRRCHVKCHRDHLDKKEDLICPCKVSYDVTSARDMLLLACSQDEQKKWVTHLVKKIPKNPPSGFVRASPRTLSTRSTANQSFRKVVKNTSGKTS

In general, IC50 refers to the concentration that gives 50% inhibition. Read a high IC50 as weaker potency. `CC(C)NC(=O)C1COc2ccc(-c3nccc(Nc4ccc5[nH]ncc5c4)n3)cc2O1` (stereo not drawn) [TDI01103, 7-(4-((1H-indazol-5-yl)amino)pyrimidin-2-yl)-N-isopropyl-2,3-dihydrobenzo[b][1,4]dioxine-2-carboxamide]: it took 2060 nM to reach half-maximal inhibition (IC50). For `CC(C)NC(=O)c1cc2ccc(-c3nccc(Nc4ccc5[nH]ncc5c4)n3)cc2s1` [TDI01104, 6-(4-((1H-indazol-5-yl)amino)pyrimidin-2-yl)-N-isopropylben-zo[b]thiophene-2-carboxamide] the value was 870 nM; for `CNC(=O)c1cc2ccc(-c3nccc(Nc4ccc5[nH]ncc5c4)n3)cc2s1` [TDI01109, 6-(4-((1H-indazol-5-yl)amino)pyrimidin-2-yl)-N-methylben-zo[b]thiophene-2-carboxamide], more than 10000 nM; for `CN(C)C(=O)c1cc2ccc(-c3nccc(Nc4ccc5[nH]ncc5c4)n3)cc2s1` [TDI01110, 6-(4-((1H-indazol-5-yl)amino)pyrimidin-2-yl)-N, N-dimethylben-zo[b]thiophene-2-carboxamide], more than 10000 nM. The result for `O=C(NC1CC1)c1cc2ccc(-c3nccc(Nc4ccc5[nH]ncc5c4)n3)cc2s1` [TDI01111, 6-(4-((1H-indazol-5-yl)amino)pyrimidin-2-yl)-N-cyclopropylben-zo[b]thiophene-2-carboxamide] reads 1410 nM; that for `O=C(NC1CCOC1)c1cc2ccc(-c3nccc(Nc4ccc5[nH]ncc5c4)n3)cc2s1` (stereo not drawn) [TDI01113, 6-(4-((1H-indazol-5-yl)amino)pyrimidin-2-yl)-N-(tetrahydrofuran-3-yl)benzo[b]thiophene-2-carboxamide], 554 nM; that for `O=C(Nc1ccnnc1)c1cc2ccc(-c3nccc(Nc4ccc5[nH]ncc5c4)n3)cc2s1` [TDI01116, 6-(4-((1H-indazol-5-yl)amino)-pyrimidin-2-yl)-N-(pyridazin-4-yl)benzo[b]-thiophene-2-carboxamide], more than 10000 nM. In turn, `CC(C)NC(=O)c1cc2ccc(-c3nc(Nc4ccc5[nH]ncc5c4)c4ccn(CCN(C)C)c4n3)cc2s1` [TDI01122, 6-(4-((1H-indazol-5-yl)amino)-7-(2-(dimethylami-no)ethyl)-7H-pyrrolo[2,3-d]pyrimidin-2-yl)-N-isopropylben-zo[b]thiophene-2-carboxamide] yielded an IC50 of 3270 nM. For `Cn1cc(NC(=O)c2cc3ccc(-c4nccc(Nc5ccc6[nH]ncc6c5)n4)cc3[nH]2)cn1` [TDI01134, 6-(4-((1H-indazol-5-yl)amino)-pyrimidin-2-yl)-N-(1-methyl-1H-pyrazol-4-yl)-1H-indole-2-carboxamide] the value was 1370 nM; for `CC(C)NC(=O)c1cc2ccc(-c3nc(Nc4ccc5[nH]ncc5c4)c4occc4n3)cc2s1` [TDI01135, 6-(4-((1H-indazol-5-yl)amino)furo[3,2-d]pyrimidin-2-yl)-N-isopropylben-zo[b]thiophene-2-carboxamide], 3000 nM; for `CC(C)NC(=O)c1cc2ccc(-c3nc(Nc4ccc5[nH]ncc5c4)c4sccc4n3)cc2s1` [TDI01136, 6-(4-((1H-indazol-5-yl)amino)thieno[3,2-d]pyrimidin-2-yl)-N-isopropylben-zo[b]thiophene-2-carboxamide], 827 nM. In turn, `CC(C)NC(=O)c1cc2ccc(-c3nc(Nc4ccc5[nH]ncc5c4)c4sccc4n3)cc2[nH]1` [TDI01141, 6-(4-((1H-indazol-5-yl)amino)thieno[3,2-d]pyrimidin-2-yl)-N-isopropyl-1H-indole-2-carboxamide] showed an IC50 of 839 nM. The result for `CC(C)NC(=O)c1cc2ccc(-c3nc(Nc4ccc5[nH]ncc5c4)c4cc[nH]c4n3)cc2[nH]1` [TDI01143, 6-(4-((1H-indazol-5-yl)amino)-7H-pyrrolo[2,3-d]pyrimidin-2-yl)-N-isopropyl-1H-indole-2-carboxamide] reads 1480 nM. For `CC(C)NC(=O)c1cc2ccc(-c3nc(Nc4ccc5[nH]ncc5c4)c4scnc4n3)cc2[nH]1` [TDI01149, 6-(7-((1H-indazol-5-yl)ami-no)thiazolo[4,5-d]pyrimidin-5-yl)-N-isopropyl-1H-indole-2-carboxamide] the value was 1320 nM; for `O=C(NC1CC1)c1cc2ccc(-c3nccc(Nc4ccc5[nH]ncc5c4)n3)cc2[nH]1` [TDI01151, 6-(4-((1H-indazol-5-yl)amino)-pyrimidin-2-yl)-N-cyclopropyl-1H-indole-2-carboxamide], 892 nM; for `O=C(Nc1ccnnc1)c1cc2ccc(-c3nccc(Nc4ccc5[nH]ncc5c4)n3)cc2[nH]1` [TDI01152, 6-(4-((1H-indazol-5-yl)amino)-pyrimidin-2-yl)-N-(pyridazin-4-yl)-1H-indole-2-carboxaniide], more than 10000 nM. The result for `O=C(Nc1ccncc1)c1cc2ccc(-c3nccc(Nc4ccc5[nH]ncc5c4)n3)cc2[nH]1` [TDI01153, 6-(4-((1H-indazol-5-yl)amino)-pyrimidin-2-yl)-N-(pyridin-4-yl)-1H-indole-2-carboxamide] reads 2720 nM. `O=C(Nc1cnoc1)c1cc2ccc(-c3nccc(Nc4ccc5[nH]ncc5c4)n3)cc2[nH]1` [TDI01156, 6-(4-((1H-indazol-5-yl)amino)-pyrimidin-2-yl)-N-(isoxazol-4-yl)-1H-indole-2-carboxamide]: the midpoint of inhibition, the IC50, lay at 1990 nM. For `O=C(Nc1cnccn1)c1cc2ccc(-c3nccc(Nc4ccc5[nH]ncc5c4)n3)cc2[nH]1` [TDI01160, 6-(4-((1H-indazol-5-yl)amino)pyrimidin-2-yl)-N-(pyrazin-2-yl)-1H-indole-2-carboxamide], the IC50 was determined as 2240 nM. For `O=C(Nc1ccncn1)c1cc2ccc(-c3nccc(Nc4ccc5[nH]ncc5c4)n3)cc2[nH]1` [TDI01161, 6-(4-((1H-indazol-5-yl)amino)-pyrimidin-2-yl)-N-(pyrimidin-4-yl)-1H-indole-2-carboxamide] the value was more than 10000 nM; for `O=C(Nc1ccnnc1)c1cc2ccc(-c3nc(Nc4ccc5[nH]ncc5c4)cc4nccn34)cc2[nH]1` [TDI01164, 6-(7-((1H-indazol-5-yl)amino)-imidazo[1,2-c]pyrimidin-5-yl)-N-(pyridazin-4-yl)-1H-indole-2-carboxamide], more than 10000 nM; for `O=C(Nc1ccnnc1)c1cc2ccc(-c3ncnc(Nc4ccc5[nH]ncc5c4)n3)cc2[nH]1` [TDI01167, 6-(4-((1H-indazol-5-yl)amino)-1,3,5-triazin-2-yl)-N-(pyridazin-4-yl)-1H-indole-2-carboxamide], more than 10000 nM.

In turn, `O=C(Nc1ccnnc1)c1cc2ccc(-c3nc(Nc4ccc5[nH]ncc5c4)c4sccc4n3)cc2[nH]1` [TDI01175, 6-(4-((1H-indazol-5-yl)amino)-thieno[3,2-d]pyrimidin-2-yl)-N-(pyridazin-4-yl)-1H-indole-2-carboxamide] yielded an IC50 of 5190 nM. The result for `CC(CO)NC(=O)c1cc2ccc(-c3nccc(Nc4ccc5[nH]ncc5c4)n3)cc2[nH]1` (stereo not drawn) [TDI01176, 6-(4-((1H-indazol-5-yl)amino)-pyrimidin-2-yl)-N-(1-hydroxypropan-2-yl)-1H-indole-2-carboxamide] reads 521 nM; that for `O=C(Nc1ccnnc1Cl)c1cc2ccc(-c3nccc(Nc4ccc5[nH]ncc5c4)n3)cc2[nH]1` [TDI01180], 2780 nM.

In turn, `O=C(Nc1cnncc1Cl)c1cc2ccc(-c3nccc(Nc4ccc5[nH]ncc5c4)n3)cc2[nH]1` [TDI01181, 6-(4-((1H-indazol-5-yl)amino)-pyrimidin-2-yl)-N-(5-chloropridazin-4-yl)-1H-indole-2-carboxamide] yielded an IC50 of 947 nM. The result for `O=C(Nc1ccc2[nH]ncc2c1)c1cc2ccc(-c3nccc(Nc4ccc5[nH]ncc5c4)n3)cc2[nH]1` [TDI01182, 6-(4-((1H-indazol-5-yl)amino)-pyrimidin-2-yl)-N-(1H-indazol-5-yl)-1H-indole-2-carboxamide] reads 712 nM. As for `O=C(Nc1ccnnc1)c1cc2cc(-c3nccc(Nc4ccc5[nH]ncc5c4)n3)ccc2[nH]1` [TDI01188, 5-(4-((1H-indazol-5-yl)amino)-pyrimidin-2-yl)-N-(pyridazin-4-yl)-1H-indole-2-carboxamide], the IC50 was found to be 1280 nM.

Consider `O=C(Nc1ccnnc1)c1c[nH]c2ccc(-c3nccc(Nc4ccc5[nH]ncc5c4)n3)cc12` [TDI01191, 5-(4-((1H-indazol-5-yl)amino)-pyrimidin-2-yl)-N-(pyridazin-4-yl)-1H-indole-3-carboxamide], for which it took 2530 nM to reach half-maximal inhibition (IC50).

Compound `O=C(Nc1cn[nH]c1)c1cc2ccc(-c3nccc(Nc4ccc5[nH]ncc5c4)n3)cc2[nH]1` [TDI01199, 6-(4-((1H-indazol-5-yl)amino)-pyrimidin-2-yl)-N-(1H-pyrazol-4-yl)-1H-indole-2-carboxamide] returned a half-inhibitory concentration (IC50) of 1100 nM.

(Values after patent US11390609B2, “Rho-associated protein kinase inhibitor, pharmaceutical composition comprising same, and preparation method and use thereof” (BEIJING TIDE PHARMACEUTICAL CO., LTD., priority 2017, dated 2022).)
